Measured values taken from patent publication US9572813B2, “Antiviral agent” (SHIONOGI & CO., LTD., priority 2001, dated 2017).

Columns and labels:
integrase = integrase (Human immunodeficiency virus type 1 group M subtype B, UniProt P04585); assay: Integrase inhibition assay (microtiter plate strand transfer, substrate DNA/target DNA, anti-digoxigenin ELISA); format: biochemical; settings: concentration of the compound at percent inhibition 50%; 30° C. for 1 hour; OD at 405 nm; read-out: IC50 (converted)
Experimental: The inhibitory activities against integrase of the compounds in the present invention have been determined by the assay described below.
(1) Preparation of DNA Solutions.
Substrate DNA and target DNA, which sequences were indicated below, were synthesized by Amersham Pharmacia Biotech and dissolved in KTE buffer (composition: 100 mM KCl, 1 mM EDTA, 10 mM Tris-HCl (pH 7.6)) at concentration of 2 pmol/μl and 0.5 pmol/μl, respectively. The DNA solutions were annealed with each complement by slowly cooling after heating.
(2) Calculations of the Percent Inhibitions (the IC50 Values of Test Compounds)
Streptavidin, obtained from Vector Laboratories, was dissolved in 0.1 M carbonate buffer (composition: 90 mM Na2CO3, 10 mM NaHCO3) at concentration of 40 µg/ml. After coating each well of microtiter plates (obtained from NUNC) with 50 μL of the above solution at 4° C. over night, each well was washed twice with PBS (composition: 13.7 mM NaCl, 0.27 mM KCl, 0.43 mM Na2HPO4, 0.14 mM KH2PO4) and blocked with 300 μl of 1% skim milk in PBS for 30 min. Additionally, each well was washed twice with PBS and added 50 μl of substrate DNA solution (0.04 pmol/μl) diluted to one fiftieth with NTE buffer (composition: 1M NaCl, 10 mM Tris-HCl (pH8.0), 1 mM EDTA). The microtiter plates were kept at room temperature for 30 min. Then, each well was washed twice with PBS and once with H2O.
Subsequently, in the each well prepared above were added 45 μl of the reaction buffer prepared from 12 μl of the buffer (composition: 150 mM MOPS (pH 7.2), 75 mM MnCl2, 50 mM 2-mercaptoethanol, 25% glycerol, 500 μg/ml bovine serum albumin-fraction V), 1 μl of target DNA (5 pmol/μl), and 32 μl of the distilled water. Additionally, 6 μl of either a test compound in DMSO or DMSO for positive control (PC) was mixed with the above reaction buffer, then 9 μl of an integrase solution (30 pmol) was added and mixed well. In the well of negative control (NC) was added 9 μl of the integrase dilution buffer (composition: Hepes (pH7.6), 400 mM potassium glutamate, 1 mM EDTA, 0.1% NP-40, 20% glycerol, 1 mM DTT, 4M urea).
The microtiter plates were incubated at 30° C. for 1 hour. The reaction solution was removed and each well was washed twice with PBS. Subsequently, each well of the microtiter plates was filled with 100 μl of anti-digoxigenin antibody labeled with alkaline phosphatase (Sheep Fab fragment: obtained from Boehringer) and incubated at 30° C. for 1 hour. Then, each well was washed twice with 0.05% Tween20 in PBS and once with PBS. Next, 150 μl of the Alkaline phosphatase reaction buffer (composition: 10 mM p-Nitrophenylphosphate (obtained from Vector Laboratories), 5 mM MgCl2, 100 mM NaCl, 100 mM Tris-HCl (pH 9.5)) was added in each well. The microtiter plates were incubated at 30° C. for 2 hours. The optical density (OD) at 405 nm of each well was measured and the percent inhibition was determined by the following expression. The percent inhibition (%)=100[1−{(C abs.−NC abs.)/(PC abs.−NC abs.)}] • C abs.; the OD of the well of the • NC abs.: the OD of the negative control (NC) • PC abs.: the OD of the positive control (PC)
When the percent inhibition (%) is X % at the concentration of x μg/ml and the percent inhibition (%) is Y % at the concentration of y μg/ml, one of which is more than 50% and the other is less than 50%, IC50 can be determined by the following expression. IC50(μg/ml)=x−{(X−50),(x−y)/(X−Y)}
Compound No. in the Table 1 is the same as compound No. of the above example.

| Compound | IC50 (integrase) [nM] | melting point [°C] |
| --- | --- | --- |
| CN1CC(C(=O)c2occc2Cc2ccc(F)cc2)=C(O)C1=O [Compound A-50, 4-[3-(4-Fluorobenzyl)furan-2-carbonyl]-3-hydroxy-1-methyl-1,5-dihydropyrrole-2-one] | 507 | 208 to 210 |
| CC(C)Oc1cc(F)ccc1Cc1ccc(C(=O)C2=C(O)C(=O)N(C)C2)o1 [Compound A-141-k, 4-[5-(4-Fluoro-2-isopropoxybenzyl)furan-2-carbonyl]-3-hydroxy-1-methyl-1,5-dihydropyrrole-2-one] | 1820 | 126 to 129 |
| COC(C)(C)c1cc(Cc2ccc(F)cc2)c(C(=O)C2=C(O)C(=O)N(C)C2)o1 [Compound A-158, 4-[3-(4-Fluorobenzyl)-5-(1-methoxy-1-methylethyl)furan-2-carbonyl]-3-hydroxy-1-methyl-1,5-dihydropyrrole-2-one] | 1730 | 144 to 145 |
| CN1CC(c2cc(CCc3ccccc3)ncn2)=C(O)C1=O [Compound B-6-a, 3-Hydroxy-1-methyl-4-(6-phenethylpyrimidine-4-yl)-1,5-dihydropyrrole-2-one] | 5420 | 211 to 213 |
| O=C1C(O)=C(c2cc(CCc3ccccc3)ncn2)CN1C1CCCCC1 [Compound B-6-d, 1-Cyclohexyl-3-hydroxy-4-(6-phenethylpyrimidine-4-yl)-1,5-dihydropyrrole-2-one] | 6600 | 248 to 250 |
| CN1CC(c2cc(OCc3ccccc3)ncn2)=C(O)C1=O [Compound B-12, 4-(6-Benzyloxypyrimidine-4-yl)-3-hydroxy-1-methyl-1,5-dihydropyrrole-2-one] | 975 | 203 to 204 |
| CN1CC(c2ccc(Cc3ccc(F)cc3)cn2)=C(O)C1=O [Compound B-29, 4-[5-(4-Fluorobenzyl)-pyridine-2-yl]-3-hydroxy-1-methyl-1,5-dihydropyrrole-2-one] | 402 | 204 to 206 |
| CN1CC(c2ncc(OCc3ccc(F)cc3)cn2)=C(O)C1=O [Compound B-68, 4-[5-(4-fluorobenzyloxy)pyrimidine-2-yl]-3-hydroxy-1-methyl-1,5-dihydropyrrole-2-one] | 698 | 185 to 187 |
| O=c1c(O)c(-c2ccccn2)oc2cccc(OCc3ccc(F)cc3)c12 [Compound C-22, 5-[(4-fluorobenzyl)oxy]-3-hydroxy(2-pyridine-2-yl)-4H-1-benzopyrane-4-one] | 1320 | 213 |
| Cn1ncnc1-c1oc2cccc(OCc3ccc(F)cc3)c2c(=O)c1O [Compound C-39, 5-[(4-fluorobenzyl)oxy]-3-hydroxy-2-(2-methyl-2H-[1,2,4]triazole-3-yl)-4H-1-benzopyrane-4-one] | 626 | 215 to 216 |
| O=c1c(O)c(-c2nnc(Cc3ccc(F)cc3)o2)[nH]c2ccccc12 [Compound D-5, 2-[5-(4-fluorobenzyl)-[1,3,4]oxadiazole-2-yl]-3-hydroxy-1H-quinoline-4-one] | 1330 | > 300 |
| O=C(c1ccc(Cc2ccc(F)cc2)o1)c1occc(=O)c1O [Compound E-8, 2-[5-(4-fluorobenzyl)furan-2-carbonyl]-3-hydroxypyrane-4-one] | 445 | 157 to 159 |
| Cc1cc(=O)c(O)c(C(=O)c2ccc(Cc3ccc(F)cc3)o2)o1 [Compound E-16, 2-[5-(4-fluorobenzyl)furan-2-carbonyl]-3-hydroxy-6-methylpyrane-4-one] | 366 | 173 to 175 |
| O=C1CCCC(C(=O)c2ccc(Cc3ccc(F)cc3)o2)=C1O [Compound F-4, 3-[5-(4-fluorobenzyl)furan-2-carbonyl]-2-hydroxy-2-cyclohexene-1-one] | 1810 | 133 to 134 |
| Cn1ccc(C(=O)c2ccc(Cc3ccc(F)cc3)o2)c(O)c1=O [Compound J-4, 4-[5-(4-fluorobenzyl)furan-2-carbonyl]-3-hydroxy-1-methyl-1H-pyridine-2-one] | 794 | 145 to 147 |
| Cn1ccc(-c2nnc(Cc3ccc(F)cc3)o2)c(O)c1=O [Compound K-4, 4-[5-(4-fluorobenzyl)-[1,3,4]oxadiazole-2-yl]-3-hydroxy-1-methyl-1H-pyridine-2-one] | 1890 | 216 to 218 |
| Cc1[nH]cc(C(=O)c2ccc(Cc3ccc(F)cc3)o2)c(=O)c1O [Compound M-6, 5-[5-(4-fluorobenzyl)furan-2-carbonyl]-3-hydroxy-2-methyl-1H-pyridine-4-one] | 8860 | 190 to 192 |
